From publication PMC12799421, “Inhibition of constitutive activity of the atypical chemokine receptor 3 by the small-molecule inverse agonist VUF16840” (Molecular Pharmacology, 2025)

Columns and labels:
D3-ACKR3+ cells = experiment: CXCL12 uptake in ACKR3-overexpressing hCMEC/D3 cells; format: cell-based, human
Text: Human CMEC (D3) cells (CVCL_U985) stably overexpressing ACKR3 and empty vector control were generated by retroviral transductions. The lentiviral expression vector encoding the human ACKR3 was created by cloning the ACKR3 gene (NM_020311.3 from GenScript) in the restriction sites Nhe1/Sma1 of the pLV-LifeAct (a kind gift of Dr Niels Heemskerk). Lentiviral particles were packaged in HEK293T cells, cultured in Dulbecco’s modified Eagle’s medium containing 10% fetal calf serum, 1% penicillin/streptomycin (ThermoFisher Scientific) at 37 °C in a 5% CO2 incubator. Lentiviral expression and packaging vectors were introduced using calcium phosphate transfection. […] Supernatant was taken off, cells were washed 1× with medium and CXCL12-A647 signal in cells was measured using a BioTek Cytation microplate reader (Agilent). […]
The sigmoidal concentration-dependent displacement of binding of the probes [^3H]VUF15485 and CXCL12-A647 by unlabeled ligands were analyzed using GraphPad Prism 8, by fitting a one-site binding model to the data, to determine the pIC50. Mean pIC50 values were determined by averaging fitted values from individual experiments. […] Mean pEC50 values and pIC50 values were determined by averaging fitted values from individual experiments. […]

CCR3 = CCR3 (Homo sapiens, UniProt P51677); experiment: NanoBiT β-arrestin2 recruitment to CCR3, concentration-response; format: cell-based
Experimental: The pharmacological modulation of all chemokine receptors by VUF16840 was performed according to an established method.[8]^,[23]^,[39] Briefly, β-arrestin2 recruitment to chemokine receptors in response to 1 μM VUF16840 or positive control chemokines was monitored by NanoLuc complementation assay (NanoBiT, Promega). Four hours after transfection, cells were harvested, incubated for 25 minutes at 37 °C with furimazine and distributed into a white 96-well plates (1 × 10^5 cells per well). β-Arrestin2 recruitment was then detected for 20 minutes upon treatment with 1 μM VUF16840 (or increasing concentrations ligand for experiments with CC chemokine receptor [CCR3]) using the Mithras LB940 luminometer (Berthold Technologies). To evaluate the antagonist properties of VUF16840, full agonists of each receptor were added after the 20-minute incubation with VUF16840. Signal from wells treated with full agonist only was defined as 100% activity and signals from wells treated with no agonist were used to set 0% activity.
Supplemental Figure 5 – Modulation of CCR3 receptor by VUF16840. Recruitment of β-arrestin2 towards CCR3 chemokine receptor was measured using a NLuc complementation assay in HEK293T cells. The concentration-dependent activation of the CCR3 was determined for VUF16840 and the endogenous agonist CCL13. All values depict the mean ± SD of ≥ 3 experiments.

hCXCR4-NLuc = target: T1, hCXCR4-NLuc (Homo sapiens, UniProt P61073); experiment: Bystander BRET detection of CXCR4 membrane localization; format: cell-based; details: 1 μM VUF16840
T1 construct: expressed in transfected cells; host or cells: HEK293T
Experimental: Ligand-induced receptor mobilization to the plasma membrane was monitored by bystander NanoBRET according to an established method.[36] For this assay, 5 × 10^6 HEK293T cells were seeded in 10-cm dishes and cotransfected with plasmids encoding ACKR3 C-terminally tagged with NLuc and mNeonGreen N-terminally tagged with the plasma membrane targeting sequence corresponding to the first 11 residues ([…]) of the human Lyn-kinase.[37] Twenty-four hours after transfection, cells were distributed into black 96-well plates (1 × 10^5 cells per well) and treated with chemokines (100 nM). After 45-minute incubation at 37 °C, coelenterazine H (10 μM) was added and donor emission (460 nm) and acceptor emission (535 nm) were immediately measured on a GloMax Discover (Promega) plate reader.
The resulting proximity between hACKR3-NLuc and was determined as bystander BRET. […] (B) The same assay was performed as in A for hCXCR4-NLuc. […] Expression of hACKR3-NLuc at the cell surface was determined by the measurement of bystander BRET. Depicted data represents the mean ± SD of 3 experiments with triplicate measurements per experiment.

CCR3, sequence (P51677 whole entry): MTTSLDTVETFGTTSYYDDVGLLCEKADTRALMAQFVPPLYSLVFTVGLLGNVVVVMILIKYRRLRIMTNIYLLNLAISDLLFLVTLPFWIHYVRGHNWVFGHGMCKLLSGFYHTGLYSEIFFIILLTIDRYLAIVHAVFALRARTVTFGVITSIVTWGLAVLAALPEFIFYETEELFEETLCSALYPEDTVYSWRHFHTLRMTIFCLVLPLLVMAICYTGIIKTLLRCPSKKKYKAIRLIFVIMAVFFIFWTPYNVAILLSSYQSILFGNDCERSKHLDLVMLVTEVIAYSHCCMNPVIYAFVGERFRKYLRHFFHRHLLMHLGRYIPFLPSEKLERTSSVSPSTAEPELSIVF
CCR3, sequence (P32121 whole entry partner): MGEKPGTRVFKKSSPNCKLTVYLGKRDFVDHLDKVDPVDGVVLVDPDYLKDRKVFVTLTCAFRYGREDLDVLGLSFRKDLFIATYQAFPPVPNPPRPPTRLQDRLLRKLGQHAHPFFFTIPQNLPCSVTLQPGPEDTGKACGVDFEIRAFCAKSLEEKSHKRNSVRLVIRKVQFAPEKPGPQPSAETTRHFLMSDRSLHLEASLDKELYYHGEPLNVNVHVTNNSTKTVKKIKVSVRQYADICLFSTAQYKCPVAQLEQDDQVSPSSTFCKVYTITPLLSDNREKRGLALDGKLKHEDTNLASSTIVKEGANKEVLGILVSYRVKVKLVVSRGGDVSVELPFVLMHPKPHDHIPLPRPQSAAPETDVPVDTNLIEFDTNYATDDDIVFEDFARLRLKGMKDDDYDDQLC
T1 sequence (P61073 whole entry): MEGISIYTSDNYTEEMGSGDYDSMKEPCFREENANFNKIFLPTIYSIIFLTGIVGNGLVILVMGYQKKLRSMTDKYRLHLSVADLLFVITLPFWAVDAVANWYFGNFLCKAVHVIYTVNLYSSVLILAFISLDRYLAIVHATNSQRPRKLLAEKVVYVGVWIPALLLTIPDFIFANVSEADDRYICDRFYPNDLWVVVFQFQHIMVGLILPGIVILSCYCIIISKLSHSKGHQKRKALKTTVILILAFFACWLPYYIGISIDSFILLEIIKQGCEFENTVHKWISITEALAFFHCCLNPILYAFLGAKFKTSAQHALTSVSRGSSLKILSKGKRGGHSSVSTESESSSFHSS

EC50 (CCR3; HEK293T, NanoBiT, read-out: EC50, activation of CCR3 (β-arrestin2 recruitment)): 200 nM | efficacy at CCR3 relative to endogenous agonist CCL13 (CCR3; β-arrestin2 recruitment): 1.4 fold | effect on CXCR4 surface expression (bystander BRET) (hCXCR4-NLuc): not affected
SMILES: COc1ccccc1CCNC(=O)C1CN(C2CCCCC2)CCC1NC(=O)c1cc(-c2ccc(F)cc2F)on1 (centres unmarked) [VUF16840]
CXCL12-AF647 uptake (mean fluorescent intensity) (D3-ACKR3+ cells; 3 nM CXCL12-AF647 60 minutes, 1, 10 or 100 nM VUF16840): concentration-dependent inhibition | uptake of CXCL12-AF647 (confocal microscopy) (D3-ACKR3+ cells; 3 nM CXCL12-AF647, 100 nM VUF16840): abolished
